Experimental data published in ChEMBL document CHEMBL6178014, “Discovery and Administration Optimization of Novel Selective CDK9 Inhibitor, 1-7a-B1, for Improved Pharmacokinetics and Antitumor Efficacy In Vivo” (J Med Chem, 2025).

Biological target: CDK9/cyclin T1 (Homo sapiens, UniProt P50750)
Assay: Inhibition of His-tagged full length human recombinant CDK9/cyclinT1 using KTFCGTPEYLAPEVRREPRILSEEEQEMFRDFDYIADWC as substrate incubated for 60 mins by ADP-Glo kinase assay
Format: protein-complex assay
Settings: not given

CDK9/cyclin T1, sequence (O60563 whole entry): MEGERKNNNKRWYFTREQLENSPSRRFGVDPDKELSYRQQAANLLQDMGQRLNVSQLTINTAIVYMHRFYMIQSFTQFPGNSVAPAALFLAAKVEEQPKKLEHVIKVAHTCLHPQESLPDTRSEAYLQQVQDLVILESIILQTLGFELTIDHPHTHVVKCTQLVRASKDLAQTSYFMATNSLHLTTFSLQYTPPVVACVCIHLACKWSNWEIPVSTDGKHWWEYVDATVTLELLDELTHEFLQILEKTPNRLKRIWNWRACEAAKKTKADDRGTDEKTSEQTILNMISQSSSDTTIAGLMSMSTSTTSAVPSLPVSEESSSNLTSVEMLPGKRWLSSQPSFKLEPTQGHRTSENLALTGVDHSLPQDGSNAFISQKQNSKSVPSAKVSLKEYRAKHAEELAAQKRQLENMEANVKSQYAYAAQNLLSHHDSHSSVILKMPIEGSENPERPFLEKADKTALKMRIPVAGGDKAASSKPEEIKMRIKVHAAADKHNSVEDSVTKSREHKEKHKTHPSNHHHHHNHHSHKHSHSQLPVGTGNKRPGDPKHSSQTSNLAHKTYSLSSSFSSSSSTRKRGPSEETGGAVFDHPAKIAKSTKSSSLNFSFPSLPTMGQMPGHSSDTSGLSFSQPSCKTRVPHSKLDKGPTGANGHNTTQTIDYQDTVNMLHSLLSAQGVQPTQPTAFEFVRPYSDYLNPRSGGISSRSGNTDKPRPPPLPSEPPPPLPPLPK
CDK9/cyclin T1, sequence (P50750 whole entry): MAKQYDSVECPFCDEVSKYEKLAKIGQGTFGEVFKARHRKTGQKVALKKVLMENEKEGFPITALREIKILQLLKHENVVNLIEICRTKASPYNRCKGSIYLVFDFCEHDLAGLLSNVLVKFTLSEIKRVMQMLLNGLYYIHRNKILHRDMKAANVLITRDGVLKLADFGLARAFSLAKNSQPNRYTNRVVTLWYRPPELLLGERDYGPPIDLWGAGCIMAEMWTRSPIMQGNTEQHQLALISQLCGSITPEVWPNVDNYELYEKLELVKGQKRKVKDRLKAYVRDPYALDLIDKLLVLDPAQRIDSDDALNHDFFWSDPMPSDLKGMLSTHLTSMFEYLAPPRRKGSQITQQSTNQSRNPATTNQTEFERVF

Q: With `CC(C)Oc1cc(F)ccc1-c1ccnc(NC(=O)Nc2ccc(C(=O)N3CCN(C)CC3)cc2)c1` as the compound, how does the IC50 read?
A: > 50 nM

Q: Which IC50 does the source give for `CC(C)Oc1cc(F)ccc1-c1ccnc(NC(=O)Nc2cccc(C(=O)N3CCCN(C)CC3)c2)c1` here?
A: > 50 nM

Q: Which IC50 does the source give for `CC(=O)N1CCN(C(=O)c2cccc(NC(=O)Nc3cc(-c4ccc(F)cc4OC(C)C)ccn3)c2)CC1` here?
A: > 50 nM

Q: For `CCOc1cc(F)ccc1-c1ccnc(NC(=O)Nc2cccc(C(=O)N3CCOCC3)c2)c1`, which IC50 is on record?
A: 30.4 nM

Q: Which IC50 does the source give for `Cc1ccc(-c2ccnc(NC(=O)Nc3cccc(C(=O)N4CCOCC4)c3)c2)cc1` here?
A: > 50 nM

Q: Which IC50 does the source give for `CC(C)Oc1cc(F)ccc1-c1ccnc(NC(=O)Nc2ccc(C(=O)N3CCOCC3)cc2)c1` here?
A: > 50 nM

Q: For `CC(C)Oc1cc(F)ccc1-c1ccnc(NC(=O)Nc2cccc(C(=O)N3CCN(C(C)C)CC3)c2)c1`, which IC50 is on record?
A: > 50 nM

Q: Which IC50 does the source give for `CC(=O)N1CCN(C(=O)c2ccc(NC(=O)Nc3cc(-c4ccc(F)cc4OC(C)C)ccn3)cc2)CC1` here?
A: > 50 nM

Q: With `CC(C)Oc1cc(F)ccc1-c1ccnc(NC(=O)Nc2ccc(C(=O)N3CCCC3)cc2)c1` as the compound, how does the IC50 read?
A: > 50 nM

Q: For `O=C(Nc1cccc(C(=O)N2CCOCC2)c1)Nc1cc(-c2ccc(F)cc2OCC2CCCC2)ccn1`, which IC50 is on record?
A: 59.1 nM

Q: With `O=C(Nc1cccc(C(=O)N2CCOCC2)c1)Nc1cc(-c2cc(F)cc(F)c2)ccn1` as the compound, how does the IC50 read?
A: > 50 nM

Q: With `CC(C)Oc1cc(F)ccc1-c1ccnc(NC(=O)Nc2cccc(C(=O)N3CCOCC3)c2)c1` as the compound, how does the IC50 read?
A: 21 nM

Q: For `O=C(Nc1cccc(C(=O)N2CCOCC2)c1)Nc1cc(-c2cccc(F)c2)ccn1`, which IC50 is on record?
A: > 50 nM

Q: Which IC50 does the source give for `CC(C)Oc1cc(F)ccc1-c1ccnc(NC(=O)Nc2ccc(C(=O)N3CCC(F)(F)CC3)cc2)c1` here?
A: > 50 nM

System: not listed separately
Assay: Metabolic stability in human liver microsome assessed as half life at 100 uM pre-incubated with compound for 60 mins followed by NADPH addition and measured up to 60 mins by LC-MS/MS analysis
Format: ADME
Settings: liver microsomes, time < 120 min

Q: With `O=C(O)Cc1ccccc1Nc1c(Cl)cccc1Cl` [DICLOFENAC] as the compound, how does the half-life at 100 µM read?
A: 6.4 min

Q: With `C[C@]12CC[C@H]3[C@@H](CCC4=CC(=O)CC[C@@]43C)[C@@H]1CC[C@@H]2O` [TESTOSTERONE] as the compound, how does the half-life at 100 µM read?
A: 7.8 min

System: HT-29
Assay: Antiproliferative activity against human HT-29 cells assessed as inhibition of cell growth incubated for 48 hrs by CCK8 assay
Format: functional
Settings: not given

Q: With `CC(C)Oc1cc(F)ccc1-c1ccnc(NC(=O)Nc2ccc(C(=O)N3CCN(C)CC3)cc2)c1` as the compound, how does the GI50 read?
A: > 1000 nM

Q: With `CC(C)Oc1cc(F)ccc1-c1ccnc(NC(=O)Nc2cccc(C(=O)N3CCCN(C)CC3)c2)c1` as the compound, how does the GI50 read?
A: > 1000 nM

Q: For `CC(=O)N1CCN(C(=O)c2cccc(NC(=O)Nc3cc(-c4ccc(F)cc4OC(C)C)ccn3)c2)CC1`, which GI50 is on record?
A: > 1000 nM

Q: For `CCOc1cc(F)ccc1-c1ccnc(NC(=O)Nc2cccc(C(=O)N3CCOCC3)c2)c1`, which GI50 is on record?
A: > 1000 nM

Q: For `Cc1ccc(-c2ccnc(NC(=O)Nc3cccc(C(=O)N4CCOCC4)c3)c2)cc1`, which GI50 is on record?
A: > 1000 nM

Q: For `CC(C)Oc1cc(F)ccc1-c1ccnc(NC(=O)Nc2ccc(C(=O)N3CCOCC3)cc2)c1`, which GI50 is on record?
A: > 1000 nM

Q: Which GI50 does the source give for `CC(C)Oc1cc(F)ccc1-c1ccnc(NC(=O)Nc2cccc(C(=O)N3CCN(C(C)C)CC3)c2)c1` here?
A: 670 nM

Q: Which GI50 does the source give for `CC(=O)N1CCN(C(=O)c2ccc(NC(=O)Nc3cc(-c4ccc(F)cc4OC(C)C)ccn3)cc2)CC1` here?
A: > 1000 nM

Q: Which GI50 does the source give for `CC(C)Oc1cc(F)ccc1-c1ccnc(NC(=O)Nc2ccc(C(=O)N3CCCC3)cc2)c1` here?
A: > 1000 nM

Q: Which GI50 does the source give for `O=C(Nc1cccc(C(=O)N2CCOCC2)c1)Nc1cc(-c2ccc(F)cc2OCC2CCCC2)ccn1` here?
A: > 1000 nM

Q: For `O=C(Nc1cccc(C(=O)N2CCOCC2)c1)Nc1cc(-c2cc(F)cc(F)c2)ccn1`, which GI50 is on record?
A: > 1000 nM

Q: With `CC(C)Oc1cc(F)ccc1-c1ccnc(NC(=O)Nc2cccc(C(=O)N3CCOCC3)c2)c1` as the compound, how does the GI50 read?
A: 990 nM

Q: Which GI50 does the source give for `O=C(Nc1cccc(C(=O)N2CCOCC2)c1)Nc1cc(-c2cccc(F)c2)ccn1` here?
A: > 1000 nM

Q: For `CC(C)Oc1cc(F)ccc1-c1ccnc(NC(=O)Nc2ccc(C(=O)N3CCC(F)(F)CC3)cc2)c1`, which GI50 is on record?
A: > 1000 nM

Biological target: CYP1A2 (Homo sapiens, UniProt P05177)
Sequence (P05177 whole entry): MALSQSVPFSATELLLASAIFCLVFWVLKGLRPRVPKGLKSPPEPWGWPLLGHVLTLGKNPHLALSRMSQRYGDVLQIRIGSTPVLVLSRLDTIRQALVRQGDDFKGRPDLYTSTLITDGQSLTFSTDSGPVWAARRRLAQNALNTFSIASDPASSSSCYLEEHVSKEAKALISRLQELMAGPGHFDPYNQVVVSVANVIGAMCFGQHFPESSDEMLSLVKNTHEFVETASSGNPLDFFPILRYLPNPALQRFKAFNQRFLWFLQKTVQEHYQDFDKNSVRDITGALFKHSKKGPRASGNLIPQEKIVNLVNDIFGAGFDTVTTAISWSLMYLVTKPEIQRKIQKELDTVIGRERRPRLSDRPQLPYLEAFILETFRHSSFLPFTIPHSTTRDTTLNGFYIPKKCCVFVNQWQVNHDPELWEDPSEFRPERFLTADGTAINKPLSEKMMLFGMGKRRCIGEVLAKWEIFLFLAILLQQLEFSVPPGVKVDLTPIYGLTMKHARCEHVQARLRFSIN
Assay: Inhibition of CYP1A2 in human liver microsome at 10 uM pre-incubated with compound for 10 mins in presence of NADPH-regenerating system by LC-MS/MS analysis relative to control
Format: ADME
Settings: liver microsomes

Q: Which inhibition at 10 µM does the source give for `O=c1cc(-c2ccccc2)oc2c1ccc1ccccc12` [ALPHA-NAPHTHOFLAVONE] here?
A: 88.4%

System: HCT-116
Assay: Antiproliferative activity against human HCT-116 cells assessed as inhibition of cell growth incubated for 48 hrs by CCK8 assay
Format: functional
Settings: not given

Q: With `CC(C)Oc1cc(F)ccc1-c1ccnc(NC(=O)Nc2ccc(C(=O)N3CCN(C)CC3)cc2)c1` as the compound, how does the GI50 read?
A: > 1000 nM

Q: With `CC(C)Oc1cc(F)ccc1-c1ccnc(NC(=O)Nc2cccc(C(=O)N3CCCN(C)CC3)c2)c1` as the compound, how does the GI50 read?
A: > 1000 nM

Q: Which GI50 does the source give for `CC(=O)N1CCN(C(=O)c2cccc(NC(=O)Nc3cc(-c4ccc(F)cc4OC(C)C)ccn3)c2)CC1` here?
A: > 1000 nM

Q: With `CCOc1cc(F)ccc1-c1ccnc(NC(=O)Nc2cccc(C(=O)N3CCOCC3)c2)c1` as the compound, how does the GI50 read?
A: > 1000 nM

Q: With `Cc1ccc(-c2ccnc(NC(=O)Nc3cccc(C(=O)N4CCOCC4)c3)c2)cc1` as the compound, how does the GI50 read?
A: > 1000 nM

Q: Which GI50 does the source give for `CC(C)Oc1cc(F)ccc1-c1ccnc(NC(=O)Nc2ccc(C(=O)N3CCOCC3)cc2)c1` here?
A: > 1000 nM

Q: For `CC(C)Oc1cc(F)ccc1-c1ccnc(NC(=O)Nc2cccc(C(=O)N3CCN(C(C)C)CC3)c2)c1`, which GI50 is on record?
A: 960 nM

Q: With `CC(=O)N1CCN(C(=O)c2ccc(NC(=O)Nc3cc(-c4ccc(F)cc4OC(C)C)ccn3)cc2)CC1` as the compound, how does the GI50 read?
A: > 1000 nM

Q: Which GI50 does the source give for `CC(C)Oc1cc(F)ccc1-c1ccnc(NC(=O)Nc2ccc(C(=O)N3CCCC3)cc2)c1` here?
A: > 1000 nM

Q: With `O=C(Nc1cccc(C(=O)N2CCOCC2)c1)Nc1cc(-c2ccc(F)cc2OCC2CCCC2)ccn1` as the compound, how does the GI50 read?
A: > 1000 nM

Q: For `O=C(Nc1cccc(C(=O)N2CCOCC2)c1)Nc1cc(-c2cc(F)cc(F)c2)ccn1`, which GI50 is on record?
A: > 1000 nM

Q: For `CC(C)Oc1cc(F)ccc1-c1ccnc(NC(=O)Nc2cccc(C(=O)N3CCOCC3)c2)c1`, which GI50 is on record?
A: 370 nM

Q: For `O=C(Nc1cccc(C(=O)N2CCOCC2)c1)Nc1cc(-c2cccc(F)c2)ccn1`, which GI50 is on record?
A: > 1000 nM

Q: For `CC(C)Oc1cc(F)ccc1-c1ccnc(NC(=O)Nc2ccc(C(=O)N3CCC(F)(F)CC3)cc2)c1`, which GI50 is on record?
A: > 1000 nM

Biological target: CYP2C9 (Homo sapiens, UniProt P11712)
Sequence (P11712 whole entry): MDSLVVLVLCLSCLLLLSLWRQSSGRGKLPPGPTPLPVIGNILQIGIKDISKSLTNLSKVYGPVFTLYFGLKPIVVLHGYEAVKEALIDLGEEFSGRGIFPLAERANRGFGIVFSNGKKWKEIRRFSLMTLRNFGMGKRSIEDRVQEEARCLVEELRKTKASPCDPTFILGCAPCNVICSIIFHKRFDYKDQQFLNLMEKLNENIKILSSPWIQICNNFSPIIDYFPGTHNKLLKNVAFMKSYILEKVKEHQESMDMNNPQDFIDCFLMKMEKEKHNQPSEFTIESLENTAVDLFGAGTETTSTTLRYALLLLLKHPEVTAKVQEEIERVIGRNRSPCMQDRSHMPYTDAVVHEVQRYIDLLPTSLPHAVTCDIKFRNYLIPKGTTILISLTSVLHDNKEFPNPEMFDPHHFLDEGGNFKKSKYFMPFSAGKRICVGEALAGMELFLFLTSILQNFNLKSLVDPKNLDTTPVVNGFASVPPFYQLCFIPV
Assay: Inhibition of CYP2C9 in human liver microsome at 10 uM pre-incubated with compound for 10 mins in presence of NADPH-regenerating system by LC-MS/MS analysis relative to control
Format: ADME
Settings: liver microsomes

Q: With `Nc1ccc(S(=O)(=O)Nc2ccnn2-c2ccccc2)cc1` [SULFAPHENAZOLE] as the compound, how does the inhibition at 10 µM read?
A: 87.2%
